Where two headings read alike, the source gives them in different places.
Tests used:
human GAL3 receptor = target: T1, human GAL3 receptor (Homo sapiens, UniProt O60755); assay: Radioligand binding at cloned human GAL3 receptor; settings: cloned human receptor, read-out: Ki GalR3
T1 construct: expressed in transfected cells
T1 sequence (O60755 1-368): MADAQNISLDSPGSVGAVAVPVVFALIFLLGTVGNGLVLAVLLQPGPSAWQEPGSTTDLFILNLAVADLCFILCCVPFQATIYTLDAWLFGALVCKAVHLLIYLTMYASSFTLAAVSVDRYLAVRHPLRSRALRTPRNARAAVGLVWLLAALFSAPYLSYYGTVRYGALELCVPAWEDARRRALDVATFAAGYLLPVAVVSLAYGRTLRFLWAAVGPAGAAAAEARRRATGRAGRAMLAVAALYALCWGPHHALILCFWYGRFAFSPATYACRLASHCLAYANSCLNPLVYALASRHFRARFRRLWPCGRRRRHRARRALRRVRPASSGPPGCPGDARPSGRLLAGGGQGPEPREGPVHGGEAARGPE
In short: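 Membranes from LM(tk-) cells stably expressing human GAL3, prepared in binding buffer (HEPES-based, pH 7.4), used for radioligand binding. Solvent at final assay concentration: 3% DMSO for indolones, 1% ethanol/0.09% pluronic F-127 for pyrimidines. Binding data analysed by nonlinear regression.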

human GAL1 receptor = target: T2, human GAL1 receptor (Homo sapiens, UniProt P47211); assay: Radioligand binding at cloned human GAL1 receptor; settings: read-out: Ki GalR1
T2 construct: expressed in transfected cells
T2 sequence (P47211 1-349): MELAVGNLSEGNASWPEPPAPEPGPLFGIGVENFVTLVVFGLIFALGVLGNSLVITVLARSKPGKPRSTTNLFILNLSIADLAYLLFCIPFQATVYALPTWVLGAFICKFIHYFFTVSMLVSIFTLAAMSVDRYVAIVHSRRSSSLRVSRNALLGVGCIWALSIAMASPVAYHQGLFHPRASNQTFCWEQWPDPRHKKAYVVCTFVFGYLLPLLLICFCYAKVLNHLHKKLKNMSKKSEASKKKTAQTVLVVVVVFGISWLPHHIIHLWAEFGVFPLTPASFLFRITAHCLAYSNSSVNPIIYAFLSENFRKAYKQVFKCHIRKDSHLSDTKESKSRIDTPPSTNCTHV
Protocol: The binding properties of the pyrimidines of the present invention were evaluated at the cloned human galanin receptors, GAL1, GAL2, and GAL3, using protocols described herein. […]
(§1) LM(tk-) cells were stably transfected with the human GAL1 or GAL3 receptor. CHO cells were stably transfected with the human GAL2 receptor.
(§2) cDNAs for the human and rat GAL1, and human and rat GAL3 receptors were transfected with a G-418 resistant gene into the mouse fibroblast LM(tk-) cell line by a calcium phosphate transfection method (Cullen, 1987). Stably transfected cells were selected with G-418. Human and rat GAL2 receptors were similarly transfected into CHO cells.
(§3) Membranes were harvested from stably transfected LM(tk-) cells. Adherent cells were washed twice in ice-cold phosphate buffered saline (138 mM NaCl, 8.1 mM Na2HPO4, 2.5 mM KCl, 1.2 mM KH2PO4, 0.9 mM CaCl2, 0.5 mM MgCl2, pH 7.4) and lysed by sonication in ice-cold sonication buffer (20 mM Tris-HCl, 5 mM EDTA, pH 7.7). Large particles and debris were cleared by low speed centrifugation (200 x g, 5 min, 4°C). Membranes were collected from the supernatant fraction by centrifugation (32,000 x g, 18 min, 4°C), washed with ice-cold hypotonic buffer, and collected again by centrifugation (32,000 x g, 18 min, 4°C). The final membrane pellet was resuspended by sonication into a small volume of ice-cold binding buffer (-1 ml for every 5 plates: 10 mM NaCl, 20 mM HEPES, 0.22 mM KH2PO4, 1.26 mM CaCl2, 0.81 mM MgSO4, pH 7.4). Protein concentration was measured by the Bradford method (Bradford, 1976) using Bio-Rad Reagent, with bovine serum albumin as a standard. Membranes were held on ice for up to one hour and used fresh, or flash frozen and stored in liquid nitrogen. Membranes were prepared similarly from CHO cells.
(§4) Galanin Recentors: Binding assays were performed according to the following published methods: human GAL3 (PCT International Publication No. WO 98/15570), human GAL1 (PCT International Publication No. WO 95/2260), human GAL2 (PCT International Publication No. WO 97/26853).
(§5) Binding data were analyzed using nonlinear regression and statistical techniques available in the GraphPAD Prism package (San Diego, CA). Enzymatic assay data were derived from a standard curve of reference compound data.

human GAL2 receptor = target: T3, human GAL2 receptor (Homo sapiens, UniProt O43603); assay: Radioligand binding at cloned human GAL2 receptor; settings: read-out: Ki GalR2
T3 construct: expressed in transfected cells
T3 sequence (O43603 1-387): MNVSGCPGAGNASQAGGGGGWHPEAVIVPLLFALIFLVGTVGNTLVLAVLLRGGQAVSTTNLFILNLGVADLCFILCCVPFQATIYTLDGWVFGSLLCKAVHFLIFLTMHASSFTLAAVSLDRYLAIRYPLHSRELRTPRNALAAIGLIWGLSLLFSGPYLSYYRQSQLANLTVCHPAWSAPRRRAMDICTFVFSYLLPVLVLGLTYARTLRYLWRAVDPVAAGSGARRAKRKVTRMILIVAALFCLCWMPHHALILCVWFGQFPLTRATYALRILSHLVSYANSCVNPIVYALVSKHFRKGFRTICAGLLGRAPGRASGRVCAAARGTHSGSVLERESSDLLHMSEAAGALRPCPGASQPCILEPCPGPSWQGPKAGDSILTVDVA
Protocol: The binding properties of the pyrimidines of the present invention were evaluated at the cloned human galanin receptors, GAL1, GAL2, and GAL3, using protocols described herein.
The binding properties of the indolones of the present invention were evaluated at the cloned human galanin receptors, GAL1, GAL2, and GAL3, using protocols described herein.
as §1, §2, §3, §4, §5

| SMILES | Ki (human GAL3 receptor; pyrimidines) | Ki (human GAL1 receptor; pyrimidines) | Ki (human GAL2 receptor; pyrimidines) | Ki (human GAL3 receptor; indolones) | Ki (human GAL1 receptor; indolones) | Ki (human GAL2 receptor; indolones) |
| --- | --- | --- | --- | --- | --- | --- |
| Cc1cc(Nc2cc(N(C)C)nc(Nc3ccccc3)n2)ccc1Cl [Example 61] | 753 nM | > 5000 nM | > 5000 nM |  |  |  |
| Cc1ccc(Nc2cc(N(C)C)nc(Nc3ccccc3)n2)cc1Cl [Example 62] | 736 nM | > 5000 nM | > 5000 nM |  |  |  |
| CC1CCC(Nc2cc(N(C)C)nc(Nc3ccccc3)n2)CC1 (stereo not drawn) [Example 67] | 752 nM | > 5000 nM | > 5000 nM |  |  |  |
| CN(C)c1cc(NC2CCC(C(C)(C)C)CC2)nc(Nc2ccccc2)n1 (stereo not drawn) [Example 68] | 164 nM | > 5000 nM | 2150 nM |  |  |  |
| CN(C)c1cc(NC2CC3CCC2C3)nc(Nc2ccccc2)n1 (stereo not drawn) [Example 69] | 417 nM | > 5000 nM | > 5000 nM |  |  |  |
| CN(C)c1cc(NC2CC3CCC2(C)C3(C)C)nc(Nc2ccccc2)n1 (stereo not drawn) [Example 70] | 476 nM | > 5000 nM | 944 nM |  |  |  |
| COCCN(c1nc(Nc2ccc(C)cc2)cc(N(C)C)n1)C1CCCCC1 [Example 74] | 47 nM | 2290 nM | 468 nM |  |  |  |
| Cc1ccc(Nc2cc(N(C)C)nc(N3CCc4ccccc43)n2)cc1 [Example 75] | 144 nM | 1460 nM | 2460 nM |  |  |  |
| Cc1ccc(Nc2cc(N(C)C)nc(NCCc3c[nH]c4ccccc34)n2)cc1 [Example 76] | 392 nM | 3800 nM | 1660 nM |  |  |  |
| CN(C)c1cc(Nc2ccc(Cl)c(Cl)c2)nc(N(C)CCc2c[nH]c3ccccc23)n1 [Example 78] | 41 nM | 4940 nM | 1860 nM |  |  |  |
| Cc1ccc(Nc2cc(N(C)C)nc(N3CCOCC3c3ccccc3)n2)cc1 (stereo not drawn) [Example 82] | 232 nM | > 5000 nM | > 5000 nM |  |  |  |
| Cc1ccc(Nc2cc(N(C)C)nc(N3CCOC(c4ccccc4)C3)n2)cc1 (stereo not drawn) [Example 83] | 160 nM | > 5000 nM | > 5000 nM |  |  |  |
| Cc1ccc(Nc2cc(N(C)C)nc(N3CCN(c4ncccc4C(F)(F)F)CC3)n2)cc1 [Example 88] | 39 nM | 2190 nM | 355 nM |  |  |  |
| Cc1ccc(Nc2cc(N3CCN(c4ncccc4C(F)(F)F)CC3)nc(N3CCCCC3)n2)cc1 [Example 89] | 105 nM | 1120 nM | 1270 nM |  |  |  |
| COCC1CCCCN1c1cc(Nc2ccc(C)cc2)nc(N2CCN(c3ncccc3C(F)(F)F)CC2)n1 (stereo not drawn) [Example 90] | 105 nM | > 5000 nM | 2460 nM |  |  |  |
| COc1ccccc1N=C1C(=O)N(c2ccccc2)c2ccccc21 [Example 91, 3-[(2-METHOXYPHENYL)IMINO]-1-PHENYL-1,3-DIHYDRO-2H-INDOL-2-ONE] |  |  |  | 527 nM | > 10000 nM | > 10000 nM |
| Cc1cccc(N=C2C(=O)N(c3ccccc3)c3ccccc32)c1 [Example 93] |  |  |  | 171 nM | > 10000 nM | > 10000 nM |
| Cc1ccc(N=C2C(=O)N(c3ccccc3)c3ccccc32)cc1 [Example 96] |  |  |  | 111 nM | > 10000 nM | > 10000 nM |
| O=C1C(=Nc2ccc(F)cc2)c2ccccc2N1c1ccccc1 [Example 99, 3-[(4-FLUOROPHENYL)IMINO]-1-PHENYL-1,3-DIHYDRO-2H-INDOL-2-ONE] |  |  |  | 229 nM | > 10000 nM | > 10000 nM |
| O=C1C(=Nc2ccc(Oc3ccccc3)cc2)c2ccccc2N1c1ccccc1 [Example 100, 3-[(4-PHENOXYPHENYL)IMINO]-1-PHENYL-1,3-DIHYDRO-2H-INDOL-2-ONE] |  |  |  | 90 nM | > 10000 nM | > 10000 nM |
| CCOc1ccc(N=C2C(=O)N(c3ccccc3)c3ccccc32)cc1 [Example 101, 3-[(4-ETHOXYPHENYL)IMINO]-1-PHENYL-1,3-DIHYDRO-2H-INDOL-2-ONE] |  |  |  | 305 nM | > 10000 nM | > 10000 nM |
| COc1ccc(N=C2C(=O)N(c3ccccc3)c3ccccc32)cc1 [Example 102, 3-[(4-METHOXYPHENYL)IMINO]-1-PHENYL-1,3-DIHYDRO-2H-INDOL-2-ONE] |  |  |  | 429 nM | > 10000 nM | > 10000 nM |
| Cc1cc(C)cc(N=C2C(=O)N(c3ccccc3)c3ccccc32)c1 [Example 104] |  |  |  | 143 nM | > 10000 nM | > 10000 nM |
| C=CCN1C(=O)C(=Nc2ccc(Cl)c(Cl)c2)c2ccccc21 [Example 105, 1-ALLYL-3-[(3,4-DICHLOROPHENYL)IMINO]-1,3-DIHYDRO-2H-INDOL-2-ONE] |  |  |  | 97 nM | > 10000 nM | > 10000 nM |
| C=CCN1C(=O)C(=Nc2cc(Cl)cc(Cl)c2)c2ccccc21 [Example 106, 1-ALLYL-3-[(3,5-DICHLOROPHENYL)IMINO]-1,3-DIHYDRO-2H-INDOL-2-ONE] |  |  |  | 62 nM | > 10000 nM | > 10000 nM |
| CC(C)N1C(=O)C(=Nc2ccc(Br)cc2)c2ccccc21 [Example 107, 3-[(4-BROMOPHENYL)IMINO]-1-ISOPROPYL-1,3-DIHYDRO-2H-INDOL-2-ONE] |  |  |  | 126 nM | > 10000 nM | > 10000 nM |

Source: patent EP2140864A2 (H. Lundbeck A/S, priority 2001, dated 2002)
